{"source": "patent US20060134226A1", "about": "“Compositions useful to treat ocular neovascular diseases and macular degeneration” (priority 2004, published 2006)", "origin": "cited, not measured here", "key": {"[1]": {"conditions": "in vivo"}, "[2]": {"conditions": "oral dose of 600 mg tid, long periods of time, patients with chronic bronchitis and emphysema"}, "[3]": {"conditions": "consumed daily"}, "[4]": {"conditions": "about 200 mg dosage of zinc per day"}, "[5]": {"system": "macular degeneration changes", "conditions": "80 mg of zinc, versus placebo"}, "[6]": {"conditions": "in vivo", "remark": "listed apart in the source"}, "[7]": {"assay": "not given", "remark": "listed apart in the source"}}}
{"compound": "CC(=O)Oc1c(C)c(C)c2c(c1C)CC[C@@](C)(CCC[C@H](C)CCC[C@H](C)CCCC(C)C)O2", "note": "(racemic) [dl-alpha tocopheryl acetate]", "values": [{"measurement": "level at which no adverse effects have been observed", "setting": "[1]", "result": "≤ 800", "unit": "mg"}]}
{"compound": "CC(=O)N[C@@H](CS)C(=O)O", "note": "[NAC, N-acetylcysteine]", "values": [{"measurement": "dose excreted in the urine", "setting": "after 24 hours", "result": "approximately 22%"}, {"measurement": "mean plasma half-life", "setting": "humans", "result": "about 1.35 hours"}, {"measurement": "absorption of radiolabelled NAC", "setting": "humans, one hour after administration", "result": "rapidly absorbed"}, {"measurement": "tolerability", "setting": "[2]", "result": "well tolerated"}]}
{"compound": "O=C1O[C@H]([C@@H](O)CO)C(O)=C1O", "note": "[vitamin C, ascorbic acid]", "values": [{"measurement": "daily intake without any known adverse effects", "setting": "[3]", "result": "≥ 1,000 mg"}]}
{"compound": "[Zn]", "note": "[zinc]", "values": [{"measurement": "side effects", "setting": "[4]", "result": "potential side effects such as anemia"}, {"measurement": "retarding macular degeneration changes", "setting": "[5]", "result": "significantly better than placebo"}]}
{"compound": "beta carotene [beta-carotene]", "values": [{"measurement": "efficiency of conversion to vitamin A in the body", "setting": "[6]", "result": "approximately 50%"}, {"measurement": "risk among male smokers", "setting": "[7]; 20 mg/day of beta-carotene", "result": "increased risk of lung cancer"}, {"measurement": "risk in men with previous myocardial infarction", "setting": "[7]; 20 mg/day of beta-carotene", "result": "increased risk of fatal coronary heart attacks"}, {"measurement": "dosage level with no observed adverse effects", "setting": "[7]; healthy, non-smokers", "result": "≤ 25", "unit": "mg per day"}]}
